Source: patent publication US20210189342A1, “COMPOSITIONS AND METHODS FOR MODULATING MONOCYTE AND MACROPHAGE INFLAMMATORY PHENOTYPES AND IMMUNOTHERAPY USES THEREOF” (Verseau Therapeutics, Inc., priority 2018, published 2021)

system: CLEC7A; experiment: siRNA dose response, CLEC7A mRNA knockdown, Dual-Glo Luciferase Assay; assay type: cell-based, human; details: Hepa1-6 + reporter plasmid, 24 hr
Description: (§1) Dose response curves for siRNAs were generated in vitro using a variety of cell lines according to Table 4.
(§2) Briefly, cells were seeded in 96-well plates and reverse transfected with siRNA, Lipofectamine® 2000 (0.5 uL/well; ThermoFisher), and, in some cases, a reporter plasmid (50 ng/well). The reporter plasmid (psiCHECK™-2, Promega) encoded both firefly luciferase and the gene of interest fused to renilla luciferase; silencing of the gene of interest results in proportional silencing of renilla luciferase but leaves firefly luciferase unaffected as an internal control.
(§3) After 24 hr incubation at 37° C., mRNA knockdown was measured using an endpoint assay. For targets without a reporter plasmid, a branched DNA (bDNA) assay was performed according to the manufacturer's instructions (QuantiGene® Singleplex Gene Expression Assay, ThermoFisher) to measure both the target gene and GAPDH (housekeeping gene) mRNA. Data are plotted as siRNA concentration (nM) vs. remaining mRNA (ratio of target gene to GAPDH, normalized to mock siRNA-transfected cells). For targets with a reporter plasmid, a Dual-Glo® Luciferase Assay was performed according to the manufacturer's instructions (Promega) to measure firefly and renilla luciferase expression. Data are plotted as siRNA concentration (nM) vs. remaining mRNA (ratio of renilla to firefly luminescence, normalized to mock siRNA-transfected cells).
(§4) For all dose response curves, a 4-parameter logistic model was applied to determine the IC50 of each siRNA sequence (Table 5 and FIG. 2). Data shown in Table 5 and FIG. 2 represent the mean of quadruplicates, +/−standard deviation.

First: XD-10561: siRNA targeting CLEC7A (sense 5'-ggucAAGAuAAAugcAGAAdTsdT-3'; antisense 5'-UUCUGcAUUaAUCUUAACCdTsdT-3'; RNA with 2'-O-methyl and phosphorothioate modifications, case key not given here, as printed in the source, key not given here)
Second: XD-10562: siRNA targeting CLEC7A (sense 5'-agGuAGGcuAGuAuuAuuudTsdT-3'; antisense 5'-AAAuAAuACuAGCCuACCUdTsdT-3'; as printed in the source, key not given here)
The IC50 of the first is 3.7-fold lower: 0.009 nM for the first, 0.033 nM for the second. The first is the more potent here.

“XD-10564: siRNA targeting CLEC7A (sense 5'-ggGuAAGccAuAAgcGaaudTsdT-3'; antisense 5'-AUUCGCUuAUGGCUuACCCdTsdT-3'; RNA with 2'-O-methyl and phosphorothioate modifications, case key not given here, as printed in the source, key not given here)” and “XD-10565: siRNA targeting CLEC7A (sense 5'-ccAuAAGcGAAucuuAAuudTsdT-3'; antisense 5'-AAUuAAGAUUCGCUuAUGGdTsdT-3'; RNA with 2'-O-methyl and phosphorothioate modifications, case key not given here, as printed in the source, key not given here)” cannot be ordered by IC50: under 0.004 nM for the first, under 0.004 nM for the second.

Going from “XD-10566: siRNA targeting CLEC7A (sense 5'-ugccAuAucucuAauAGAAdTsdT-3'; antisense 5'-UUCuAUuAGAGAuAUGGcAdTsdT-3'; RNA with 2'-O-methyl and phosphorothioate modifications, case key not given here, as printed in the source, key not given here)” to “XD-10567: siRNA targeting CLEC7A (sense 5'-gccuAGAAucuuGuAuAAudTsdT-3'; antisense 5'-AUuAuAcAAGAUUCuAGGCdTsdT-3'; as printed in the source, key not given here)”, the IC50 rises from 0.006 nM to 0.023 nM (3.8-fold).

“XD-10568: siRNA targeting CLEC7A (sense 5'-ccuAGAAucuuGuauAAuAdTsdT-3'; antisense 5'-uAUuAuAcAAGAUUCuAGGdTsdT-3'; as printed in the source, key not given here)” and “XD-10569: siRNA targeting CLEC7A (sense 5'-gcucucAuAGGAAaGuuuudTsdT-3'; antisense 5'-AAAACUUUCCuAUGAGAGCdTsdT-3'; as printed in the source, key not given here)” are the same in IC50: 0.016 nM for the first, 0.016 nM for the second.

system: LST1; experiment: siRNA dose response, LST1 mRNA knockdown, bDNA Assay; assay type: cell-based, human; details: THP-1, 24 hr
Description: as §1, §2, §3, §4

Compared with “XD-09750: siRNA targeting LST1 (sense 5'-cuGAucAuuucGccuAAAAdTsdT-3'; antisense 5'-UUUuAGGCGAAAUGAUcAGdTsdT-3'; RNA with 2'-O-methyl and phosphorothioate modifications, case key not given here, as printed in the source, key not given here)”, “XD-09751: siRNA targeting LST1 (sense 5'-cauuucGccuAAAaGAGcAdTsdT-3'; antisense 5'-UGCUCUUUuAGGCGAAAUGdTsdT-3'; RNA with 2'-O-methyl and phosphorothioate modifications, case key not given here, as printed in the source, key not given here)” is 2.3-fold lower in IC50: 3.59 nM for the first, 1.54 nM for the second. The second is the more potent here.

“XD-09752: siRNA targeting LST1 (sense 5'-gccuAAAAGAGcAaGGAcudTsdT-3'; antisense 5'-AGUCCUUGCUCUUUuAGGCdTsdT-3'; RNA with 2'-O-methyl and phosphorothioate modifications, case key not given here, as printed in the source, key not given here)” showed an IC50 of 0.737 nM.

system: IGSF6; experiment: siRNA dose response, IGSF6 mRNA knockdown, Dual-Glo Luciferase Assay; assay type: cell-based, human; details: Hepa1-6 + reporter plasmid, 24 hr
Description: as §1, §2, §3, §4

Compared with “XD-09642: siRNA targeting IGSF6 (sense 5'-gaAGcGAGAGcuAaAcAGAdTsdT-3'; antisense 5'-UCUGUUuAGCUCUCGCUUCdTsdT-3'; RNA with 2'-O-methyl and phosphorothioate modifications, case key not given here, as printed in the source, key not given here)”, “XD-09643: siRNA targeting IGSF6 (sense 5'-guGcucGGcGuAuuuuucAdTsdT-3'; antisense 5'-UGAAAAAuACGCCGAGcACdTsdT-3'; as printed in the source, key not given here)” is 2.2-fold higher in IC50: 0.035 nM for the first, 0.077 nM for the second.

Compared with “XD-09645: siRNA targeting IGSF6 (sense 5'-agAAcuAuAccAuaAGAGAdTsdT-3'; antisense 5'-UCUCUuAUGGuAuAGUUCUdTsdT-3'; as printed in the source, key not given here)”, “XD-09646: siRNA targeting IGSF6 (sense 5'-ccAuAAGAGAcAuguGGAAdTsdT-3'; antisense 5'-UUCcAcAUGUCUCUuAUGGdTsdT-3'; RNA with 2'-O-methyl and phosphorothioate modifications, case key not given here, as printed in the source, key not given here)” is 3.4-fold lower in IC50: 0.034 nM for the first, 0.01 nM for the second.

First: XD-09647: siRNA targeting IGSF6 (sense 5'-ggccAuAGAAAcGuuuuAAdTsdT-3'; antisense 5'-UuAAAACGUUUCuAUGGCCdTsdT-3'; as printed in the source, key not given here)
Second: XD-09648: siRNA targeting IGSF6 (sense 5'-ccAuAGAAAcGuuuuAAuudTsdT-3'; antisense 5'-AAUuAAAACGUUUCuAUGGdTsdT-3'; as printed in the source, key not given here)
The IC50 of the first is 7.3-fold lower: 0.069 nM for the first, 0.503 nM for the second.

With “XD-09649: siRNA targeting IGSF6 (sense 5'-acAuAuAucAucAgGucuudTsdT-3'; antisense 5'-AAGACCUGAUGAuAuAUGUdTsdT-3'; RNA with 2'-O-methyl and phosphorothioate modifications, case key not given here, as printed in the source, key not given here)” the IC50 was 0.503 nM.

system: LILRB2; experiment: siRNA dose response, LILRB2 mRNA knockdown, Dual-Glo Luciferase Assay; assay type: cell-based, human; details: Hepa1-6 + reporter plasmid, 24 hr
Description: as §1, §2, §3, §4

“XD-10590: siRNA targeting LILRB2 (sense 5'-caGcAuCuuGGAuuAcAcsa-3'; antisense 5'-dTGUGuAAUCcAAGAUGCUGusu-3'; RNA with 2'-O-methyl and phosphorothioate modifications, case key not given here, as printed in the source, key not given here)” and “XD-10591: siRNA targeting LILRB2 (sense 5'-ggAuAcGAccAGAgcuugsa-3'; antisense 5'-dTCAAGCUCUGGUCGuAUccusu-3'; RNA with 2'-O-methyl and phosphorothioate modifications, case key not given here, as printed in the source, key not given here)” are within 1.5-fold of each other in IC50: 0.068 nM for the first, 0.073 nM for the second.

First: XD-10592: siRNA targeting LILRB2 (sense 5'-gcGAuAUGGcuGucAGuasa-3'; antisense 5'-dTUACUGAcAGCcAUAUCGCusu-3'; RNA with 2'-O-methyl and phosphorothioate modifications, case key not given here, as printed in the source, key not given here)
Second: XD-10593: siRNA targeting LILRB2 (sense 5'-cuAuGGUuAuGAcuuGAasa-3'; antisense 5'-dTUUcAAGUcAuAACcAuAGusu-3'; RNA with 2'-O-methyl and phosphorothioate modifications, case key not given here, as printed in the source, key not given here)
The IC50 of the first is 3.4-fold higher: 0.459 nM for the first, 0.136 nM for the second. The second is the more potent here.

First: XD-10594: siRNA targeting LILRB2 (sense 5'-gguuAuGAcuuGAccucusa-3'; antisense 5'-dTAGAGUUcAAGUcAuAACCusu-3'; RNA with 2'-O-methyl and phosphorothioate modifications, case key not given here, as printed in the source, key not given here)
Second: XD-10597: siRNA targeting LILRB2 (sense 5'-cccAcuCcGucuAaGAucsa-3'; antisense 5'-dTGAUCUuAGACGGAGUGGGusu-3'; RNA with 2'-O-methyl and phosphorothioate modifications, case key not given here, as printed in the source, key not given here)
The IC50 of the first is 1.5-fold higher: 0.089 nM for the first, 0.059 nM for the second. The second is the more potent here.

“XD-10598: siRNA targeting LILRB2 (sense 5'-ccAcucCGucuAAgAucasa-3'; antisense 5'-dTUGAUCUuAGACGGAGUGGusu-3'; as printed in the source, key not given here)” and “XD-10599: siRNA targeting LILRB2 (sense 5'-cacuccGucuAAGaucAasa-3'; antisense 5'-dTUUGAUCUuAGACGGAGUGusu-3'; RNA with 2'-O-methyl and phosphorothioate modifications, case key not given here, as printed in the source, key not given here)” are within 1.5-fold of each other in IC50: 0.109 nM for the first, 0.127 nM for the second.
